One assay addresses PI3Kα (Homo sapiens (Human), UniProt P42336). The assay can be described thus: Inhibition of PI3Kα (ADP-Glo kinase activity assay, ATP to ADP conversion). Format: biochemical. Conditions: 25 μM PIP2:PS, 60 μM ATP, 30 min reaction, luminescence. The essentials: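 Recombinant active PI3Kα (1.1 nM) in HEPES pH 7.5 buffer with 6 mM MgCl2 and 8 mM DTT was preincubated with compound for 0 or 3 h. The reaction ran for 30 min with 25 µM PIP2:PS and 60 µM ATP, and ADP formation was read by ADP-Glo luminescence. IC50 came from a 12-point, 1:3 series fitted with a 4-parameter model, bottom fixed to reference inhibitor controls and top floating.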
For orientation: ADP-Glo first removes unused ATP, then detects ADP through luciferase.

The next assay concerns the target mTor kinase (Homo sapiens (Human), UniProt P42345). The assay is described as follows: mTor assay (33P-ATP filter-binding kinase assay). In kind it is biochemical. Conditions: 2 hours at room temperature.
Assay [1] has as its system (Ser-473) pAKT in B103 (Rat Neuroblastoma) cells. The assay is described as follows: pAKT protocol: loss of (Ser-473) pAKT by AlphaScreen in insulin-stimulated B103 cells. Conditions: (Ser-473) pAKT/total AKT IC50, 2-hour pretreatment, 2.5 μg/mL insulin 20 minutes. Format: cell-based. The essentials: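 Rat neuroblastoma B103 cells, serum-starved 6 h, were pretreated 2 h with inhibitors (6-point 1:3 series, 0.5% DMSO) before insulin stimulation. Lysate Ser-473 pAKT and total AKT measured by AlphaScreen; pAKT/total AKT ratio fitted to 4-parameter curve, bottom constrained to reference control, top anchored to DMSO.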
A general note: Bead proximity is the source of the signal in Alpha formats.

Chain of PI3Kα (P42336 whole entry): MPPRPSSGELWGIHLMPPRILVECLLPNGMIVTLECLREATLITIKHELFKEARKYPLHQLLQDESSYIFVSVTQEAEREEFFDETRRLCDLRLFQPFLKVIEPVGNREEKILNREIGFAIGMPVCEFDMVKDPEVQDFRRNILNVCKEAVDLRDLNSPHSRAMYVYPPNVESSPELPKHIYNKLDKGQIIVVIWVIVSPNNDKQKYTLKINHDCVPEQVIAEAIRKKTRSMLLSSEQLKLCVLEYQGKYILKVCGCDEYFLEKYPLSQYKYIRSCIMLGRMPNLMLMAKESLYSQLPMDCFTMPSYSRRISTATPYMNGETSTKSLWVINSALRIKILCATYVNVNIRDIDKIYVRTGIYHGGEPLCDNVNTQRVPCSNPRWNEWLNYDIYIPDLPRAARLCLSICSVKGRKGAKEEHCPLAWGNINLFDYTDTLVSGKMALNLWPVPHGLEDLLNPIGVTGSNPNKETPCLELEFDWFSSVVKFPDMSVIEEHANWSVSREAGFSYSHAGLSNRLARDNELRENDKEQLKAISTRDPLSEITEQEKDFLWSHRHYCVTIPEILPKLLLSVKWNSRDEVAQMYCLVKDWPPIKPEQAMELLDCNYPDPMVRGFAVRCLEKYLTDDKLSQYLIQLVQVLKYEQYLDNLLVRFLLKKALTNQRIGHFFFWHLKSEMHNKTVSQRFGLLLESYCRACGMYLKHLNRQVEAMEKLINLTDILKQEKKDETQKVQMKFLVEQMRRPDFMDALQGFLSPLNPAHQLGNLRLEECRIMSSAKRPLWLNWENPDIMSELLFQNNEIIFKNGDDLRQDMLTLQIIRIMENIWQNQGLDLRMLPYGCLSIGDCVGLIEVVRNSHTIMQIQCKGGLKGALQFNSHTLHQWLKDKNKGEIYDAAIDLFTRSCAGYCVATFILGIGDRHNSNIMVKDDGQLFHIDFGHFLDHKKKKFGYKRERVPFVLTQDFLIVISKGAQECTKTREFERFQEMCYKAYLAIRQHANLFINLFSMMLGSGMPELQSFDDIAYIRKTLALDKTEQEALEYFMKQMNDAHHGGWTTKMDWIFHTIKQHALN
Chain of PI3Kα (P27986 whole entry partner): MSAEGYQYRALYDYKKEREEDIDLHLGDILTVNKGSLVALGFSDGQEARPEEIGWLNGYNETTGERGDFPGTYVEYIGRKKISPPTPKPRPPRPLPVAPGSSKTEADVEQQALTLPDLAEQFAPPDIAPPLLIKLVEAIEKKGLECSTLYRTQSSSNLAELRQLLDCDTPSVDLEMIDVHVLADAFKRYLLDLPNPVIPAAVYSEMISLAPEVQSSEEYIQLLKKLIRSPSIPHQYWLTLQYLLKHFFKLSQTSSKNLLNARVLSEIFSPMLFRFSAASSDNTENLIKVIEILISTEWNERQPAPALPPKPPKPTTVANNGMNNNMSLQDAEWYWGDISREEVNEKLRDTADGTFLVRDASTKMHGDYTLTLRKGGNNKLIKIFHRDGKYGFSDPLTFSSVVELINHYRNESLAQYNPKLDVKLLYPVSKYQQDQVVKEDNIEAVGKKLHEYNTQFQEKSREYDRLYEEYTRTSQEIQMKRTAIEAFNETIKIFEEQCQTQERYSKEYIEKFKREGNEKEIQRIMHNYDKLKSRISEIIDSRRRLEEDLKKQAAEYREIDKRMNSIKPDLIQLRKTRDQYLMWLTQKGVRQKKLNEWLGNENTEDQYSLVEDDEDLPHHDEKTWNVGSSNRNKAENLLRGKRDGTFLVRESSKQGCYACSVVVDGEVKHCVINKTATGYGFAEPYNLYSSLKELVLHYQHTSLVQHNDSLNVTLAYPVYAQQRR

As a reminder, the IC50 is the concentration that inhibits the measured activity by half. For the compound `Nc1ncc(-c2cc(N3CCOCC3)cc(S(=O)(=O)c3ccc(F)cc3)c2)cn1` [Compound 8, 5-(3-((4-fluorophenyl)sulfonyl)-5-morpholinophenyl)pyrimidin-2-amine], the “PI3Ka IC50” value at PI3Kα worked out at 1.3 µM. The IC50 on mTor kinase was found to be 0.83 µM; in assay [1], 7.62 µM.
On the same counts, the results for `Nc1ncc(-c2cc(Oc3ccccc3Cl)cc(N3CCOCC3)n2)cn1` [Compound 134, 5-(4-(2-chlorophenoxy)-6-morpholinopyridin-2-yl)pyrimidin-2-amine] are 0.07 µM, 0.45 µM and 0.38 µM.
For `N#Cc1ccc(S(=O)(=O)c2cc(-c3cnc(N)nc3)cc(N3CCOCC3)c2)cc1` [Compound 10, 4-((3-(2-aminopyrimidin-5-yl)-5-morpholinophenyl)sulfonyl)benzonitrile], the “PI3Ka IC50” value on PI3Kα is 0.46 µM. In addition, the IC50 amounted to 0.64 µM at mTor kinase and 30.7 µM in assay [1].
On the same counts, the results for `O=S(=O)(Cc1ccc(F)cc1)c1cc(-c2cccc(O)c2)cc(N2CCOCC2)c1` [Compound 41, 3′-((4-fluorobenzyl)sulfonyl)-5′-morpholino-[1,1′-biphenyl]-3-ol] are 0.53 µM, 4.27 µM and 0.86 µM.
Regarding `Nc1ncc(-c2cc(N3CCOCC3)cc(S(=O)(=O)c3ccc(F)c(Cl)c3)c2)cn1` [Compound 11, 5-(3-((3-chloro-4-fluorophenyl)sulfonyl)-5-morpholinophenyl)pyrimidin-2-amine], on PI3Kα, the “PI3Ka IC50” value turned out to be 1.40 µM. In addition, the results for the IC50 (at mTor kinase; in assay [1]) were 22 µM and 100 µM, respectively.
For `N#Cc1cccc(S(=O)(=O)c2cc(-c3cnc(N)nc3)cc(N3CCOCC3)c2)c1` [Compound 13, 3-((3-(2-aminopyrimidin-5-yl)-5-morpholinophenyl)sulfonyl)benzonitrile] the same measures were 0.91 µM, 10 µM and 28.6 µM.
On to `Nc1ncc(-c2cc(C3(c4ccccc4)CC3)cc(N3CCOCC3)n2)cn1` [Compound 127, 5-(6-morpholino-4-(1-phenylcyclopropyl)pyridin-2-yl)pyrimidin-2-amine], for which the “PI3Ka IC50” value on PI3Kα worked out at 0.056 µM. The IC50 came out at 0.13 µM at mTor kinase and 0.38 µM in assay [1].
Take `Nc1ncc(-c2cc(C(=O)C3CCOCC3)cc(N3CCOCC3)n2)cn1` [Compound 131, (2-(2-aminopyrimidin-5-yl)-6-morpholinopyridin-4-yl)(tetrahydro-2H-pyran-4-yl)methanone]: on PI3Kα, the “PI3Ka IC50” value was 0.023 µM. The IC50 was 0.59 µM at mTor kinase and 0.56 µM in assay [1].
On the same counts, the results for `Nc1ncc(-c2cc(N3CCOCC3)cc(S(=O)(=O)CC3CCOC3)c2)cn1` (stereo not drawn) [Compound 38, 5-(3-morpholino-5-(((tetrahydrofuran-3-yl)methyl)sulfonyl)phenyl)pyrimidin-2-amine] are 0.74 µM, 3.6 µM and 9.11 µM.
On the same counts, the results for `Nc1ncc(-c2cc(Oc3ccccc3OC(F)(F)F)cc(N3CCOCC3)n2)cn1` [Compound 136, 5-(6-morpholino-4-(2-(trifluoromethoxy)phenoxy)pyridin-2-yl)pyrimidin-2-amine] are 0.37 µM, 2.06 µM and 1.51 µM.
For `Nc1ncc(-c2cc(N3CCOCC3)cc(S(=O)(=O)c3cccc4c3OCC4)c2)cn1` [Compound 111, 5-(3-((2,3-dihydrobenzofuran-7-yl)sulfonyl)-5-morpholinophenyl)pyrimidin-2-amine] the same measures were 0.38 µM, 5.4 µM and 14.5 µM.
